In patent US6433008B1, “α-aryl-N-alkylnitrones and pharmaceutical compositions containing the same” (Centaur Pharmaceuticals, Inc., priority 1997, dated 2002):

Legend:
[1] = system: MBP-induced EAE in Lewis rats; assay: Prevention of MBP-induced experimental allergic encephalomyelitis (EAE); type: in vivo; conditions: 100 mg/kg b.i.d. oral gavage, day 3 to day 16 post-inoculation
Description: Experimental allergic encephalomyelitis (EAE) induced by injection of guinea pig myelin basic protein (MBP) or MBP peptide fragments is reported to be a useful model for MS. See, for example, D. E. McFarlin et al., “Recurrent Experimental Allergic Encephalomyelitis in the Lewis Rat,” The Journal of Immnunology, 113(2): 712-715 (1974).
Female, Lewis rats of 8 weeks of age (180-250 g) were weighed and then given two intradermal injections (0.1 mL each) of 0.4 mg of M. tuberculin in 0.1 mL incomplete Freunds adjuvant and […] of myelin basic protein in 0.1 mL of saline into the base of the tail. Animals were weighed daily and given a clinical score beginning on Day 8, post inoculation, according to the following criteria:
2.5=Hind limb paralysis and front limb weakness
3.0=Hind and front limb paralysis
4.0=Moribund state or death
On day 3, post-inoculation animals were administered b.i.d either a test compound (100 mg/kg) or 1% methylcellulose vehicle by oral gavage up to and including day 16.

[2] = system: rats injected with Aβ(25-35) and ibotenate into the hippocampus; assay: Reduction of cognitive defects due to Aβ-peptide/ibotenate (Morris water maze); type: in vivo, Male Sprague-Dawley rats; conditions: 10 mg/kg oral gavage daily, Morris water maze 9-11 days after injection
Description: The procedures employed in this example are similar to those described in Dornan et al., NeuroReport 5, 165-168 (1993). Male Sprague-Dawley rats (200-300 g) were weighed and given 10 mg/kg of α-(2-ethoxyphenyl)-N-tert-butylnitrone or 1% methylcellulose by oral gavage. One hour later, the rats were stereotaxically injected into the CA1 region of their hippocampus with 8 nmol of Aβ(25-35) and 6 nmol of ibotenate per side (coordinates from bregma −3.6=AP, ±2.2=ML, −3.0=DV from the top of the dura). Controls were injected with PBS (pH 7.4). All injections were 1.5 μL in volume. The animals receiving PBS were orally dosed with 1% methylcellulose. Oral dosing continued daily until the end of the Morris water maze testing.
Nine to eleven days following injection, animals were tested in a Morris water maze task to measure spatial memory and learning. Animals were given three days of testing with four to six trials per day. The last trial on the fourth day was a probe trial where the platform was removed and time in quadrant and annulae crossings were determined. Following the behavioral testing, animals were perfused with 10% neutral formalin. The brain was post-fixed for 1 week in 10% formalin and then sliced for histological evaluation. Image analysis of cresyl violet staining was used to compare the neuronal loss (lesion volume) in the hippocampus between groups.

MRL/MpJ Fas^lpr mice = assay: Reduction of cognitive deficits in autoimmune mice (T-maze task); type: in vivo; conditions: 100 mg/kg oral gavage daily for 8 to 9 weeks, Fas^lpr mice tested at 4 months of age
Description: MRL/MpJfas^lpr (“mutant mice” or “Fas^lpr”) strains of mice have been described as useful models of Lupus due to their autoimmune lymphoproliferative pathology. In particular, the mutant mice show a cognitive deficit at approximately four months of age, which is not observed at two months of age. See, for example, Forster et al., 1988, Behav. Neural Biology, 49, 139-151.
In the experiment, male MRL/MpJ Fas^lPr and normal MRL/MpJ++ mice of 8 weeks of age were weighed and administered 100 mg/kg of the test compound (either α-(2-ethoxyphenyl)-N-tert-butylnitrone or α-(4-ethoxyphenyl)-N-cyclohexylnitrone) or 1% methylcellulose vehicle by oral gavage daily for 8 to 9 weeks. At 4 months of age, the mice were tested for avoidance, discrimination, session criteria and acquisition in a one day T-maze task with a maximum of 25 trials. Criteria was met with four of five trials correct with the last two correct trials being consecutive in avoidance and discrimination.

SMILES	CNS inflammatory deficit in acute EAE animals (clinical score) [1]	also measured
CCOc1cc(C=[N+]([O-])C(C)(C)C)ccc1OC [Example 3, α-(3-Ethoxy-4-methoxyphenyl)-N-tert-butylnitrone]	reduced the CNS inflammatory deficit	
CCOc1ccc(C=[N+]([O-])C(C)(C)C)cc1 [Example 4, α-(4-Ethoxyphenyl)-N-tert-butylnitrone]	did not significantly reduce the CNS inflammatory deficit	
COc1cc(C=[N+]([O-])C(C)(C)C)ccc1OCc1ccccc1 [Example 5, α-(4-Benzyloxy-3-methoxyphenyl)-N-tert-butylnitrone]	did not significantly reduce the CNS inflammatory deficit	
CCOc1ccccc1C=[N+]([O-])C(C)(C)C [Example 7, α-(2-Ethoxyphenyl)-N-tert-butylnitrone]	did not significantly reduce the CNS inflammatory deficit	Aβ peptide/ibotenate-induced learning deficit [2]: reduced the Aβ peptide/ibotenate-induced learning deficit; acquisition in T-maze task (MRL/MpJ Fas^lpr mice): reduced acquisition values; avoidance in T-maze task (MRL/MpJ Fas^lpr mice): acquired avoidance skills earlier than untreated mutant mice
CCCC[N+]([O-])=Cc1ccc(OCC)cc1 [Example 10, α-(4-ethoxyphenyl)-N-n-butylnitrone]	did not significantly reduce the CNS inflammatory deficit	
CCOc1ccc(C=[N+]([O-])C2CCCCC2)cc1 [Example 11, α-(4-Ethoxyphenyl)-N-cyclohexylnitrone]	reduced the CNS inflammatory deficit	acquisition in T-maze task (MRL/MpJ Fas^lpr mice): reduced acquisition values; avoidance in T-maze task (MRL/MpJ Fas^lpr mice): acquired avoidance skills earlier than untreated mutant mice
CCOc1ccc(C=[N+]([O-])C2CCCCC2)cc1OC [Example 15, α-(4-Ethoxy-3-methoxyphenyl)-N-cyclohexylnitrone]	did not significantly reduce the CNS inflammatory deficit	
CCOc1cc(C=[N+]([O-])C(C)C)ccc1OC [Example 17, α-(3-Ethoxy-4-methoxyphenyl)-N-isopropyinitrone]	reduced the CNS inflammatory deficit	
CCCCCCOc1ccc(C=[N+]([O-])C2CCCCC2)cc1OCC [Example 22, α-(3-Ethoxy-4-hexyloxyphenyl)-N-cyclohexylnitrone]	reduced the CNS inflammatory deficit	
CCCCCCCCOc1ccc(C=[N+]([O-])C(C)(C)C)c(F)c1 [Example 29, α-(2-Fluoro-4-octyloxyphenyl)-N-tert-butylnitrone]	did not significantly reduce the CNS inflammatory deficit	
CC(C)(C)[N+]([O-])=Cc1ccc(OCc2ccccc2)cc1 [Example 41, α-(4-Benzyloxyphenyl)-N-tert-butylnitrone]	reduced the CNS inflammatory deficit	
[O-][N+](=Cc1ccc(OCc2ccccc2)cc1)C1CCCC1 [Example 42, α-(4-Benzyloxyphenyl)-N-cyclopentylnitrone]	reduced the CNS inflammatory deficit	
CCOc1cc(C=[N+]([O-])C(C)(C)CC(C)(C)C)ccc1OC [Example 45, α-(3-Ethoxy-4-methoxyphenyl)-N-tert-octylnitrone]	reduced the CNS inflammatory deficit	
